According to PubChem BioAssay (NCI):
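Cultured in 96-well plates, cells were exposed to test compound for 48 hours across five concentrations. At the TGI there is no net growth.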

What was measured:
Experiment in all cases: DTP human tumour cell line panel, 48 h
[1] = test system: A549 NSCLC
[2] = test system: K-562 leukemia
[3] = test system: SW-620 colon
[4] = test system: SNB-75 CNS
[5] = test system: RXF 393 renal
[6] = test system: HT29 colon
[7] = test system: EKVX NSCLC
[8] = test system: OVCAR-4 ovarian
[9] = test system: IGROV1 ovarian
[10] = test system: UACC-257 melanoma
[11] = test system: NCI-H226 lung
[12] = test system: LOX IMVI melanoma
[13] = test system: TK-10 renal
[14] = test system: MALME-3M melanoma
[15] = test system: A498 renal
[16] = test system: OVCAR-8 ovarian
[17] = test system: 786-0 renal
[18] = test system: HCT-116 colon
[19] = test system: CAKI-1 renal
[20] = test system: MCF7 breast
[21] = test system: SK-OV-3 ovarian
[22] = test system: OVCAR-5 ovarian
[23] = test system: UACC-62 melanoma
[24] = test system: SK-MEL-5 melanoma
[25] = test system: DU-145 prostate
[26] = test system: OVCAR-3 ovarian
[27] = test system: HOP-92 NSCLC
[28] = test system: CCRF-CEM leukemia
[29] = test system: T-47D breast
[30] = test system: NCI/ADR-RES ovarian
[31] = test system: HS 578T breast
[32] = test system: MDA-N
[33] = test system: KM12 colon
[34] = test system: SF-268 CNS
[35] = test system: COLO 205 colon
[36] = test system: MOLT-4 leukemia
[37] = test system: BT-549 breast
[38] = test system: NCI-H522 lung
[39] = test system: SR leukemia
[40] = test system: SN12C renal
[41] = test system: ACHN renal
[42] = test system: PC-3 prostate
[43] = test system: SF-295 CNS
[44] = test system: MDA-MB-435
[45] = test system: HCT-15 colon
[46] = test system: HOP-62 NSCLC
[47] = test system: UO-31 renal
[48] = test system: SNB-19 CNS
[49] = test system: HL-60(TB) leukemia
[50] = test system: RPMI-8226 leukemia
[51] = test system: U251 CNS
[52] = test system: MDA-MB-231 breast
[53] = test system: SK-MEL-2 melanoma
[54] = test system: HCC-2998 colon
[55] = test system: NCI-H23 lung
[56] = test system: NCI-H460 lung
[57] = test system: M14 melanoma
[58] = test system: SK-MEL-28 melanoma
[59] = test system: SF-539 CNS

Structure (SMILES): O=c1nc2ccc([N+](=O)[O-])cc2[n+]([O-])[nH]1
- TGI [1]: > 100 µM
- TGI [2]: > 100 µM
- TGI [3]: > 100 µM
- TGI [4]: > 100 µM
- TGI [5]: > 100 µM
- TGI [6]: > 100 µM
- TGI [7]: > 100 µM
- TGI [8]: > 100 µM
- TGI [9]: > 100 µM
- TGI [10]: > 100 µM
- TGI [11]: > 100 µM
- TGI [12]: > 100 µM
- TGI [13]: > 100 µM
- TGI [14]: > 100 µM
- TGI [15]: > 100 µM
- TGI [16]: > 100 µM
- TGI [17]: > 100 µM
- TGI [18]: > 100 µM
- TGI [19]: > 100 µM
- TGI [20]: > 100 µM
- TGI [21]: > 100 µM
- TGI [22]: > 100 µM
- TGI [23]: > 100 µM
- TGI [24]: > 100 µM
- TGI [25]: > 100 µM
- TGI [26]: > 100 µM
- TGI [27]: > 100 µM
- TGI [28]: > 100 µM
- TGI [29]: > 100 µM
- TGI [30]: > 100 µM
- TGI [31]: > 100 µM
- TGI [32]: > 100 µM
- TGI [33]: > 100 µM
- TGI [34]: > 100 µM
- TGI [35]: > 100 µM
- TGI [36]: > 100 µM
- TGI [37]: > 100 µM
- TGI [38]: > 100 µM
- TGI [39]: > 100 µM
- TGI [40]: > 100 µM
- TGI [41]: > 100 µM
- TGI [42]: > 100 µM
- TGI [43]: > 100 µM
- TGI [44]: > 100 µM
- TGI [45]: > 100 µM
- TGI [46]: > 100 µM
- TGI [47]: > 100 µM
- TGI [48]: > 100 µM
- TGI [49]: > 100 µM
- TGI [50]: > 100 µM
- TGI [51]: > 100 µM
- TGI [52]: > 100 µM
- TGI [53]: > 100 µM
- TGI [54]: > 100 µM
- TGI [55]: > 100 µM
- TGI [56]: > 100 µM
- TGI [57]: > 100 µM
- TGI [58]: > 100 µM
- TGI [59]: > 100 µM

Structure (SMILES): NC(=O)CSc1c2cc(O)ccc2nc2ccc(O)cc12
- TGI [1]: > 10 µM
- TGI [2]: > 10 µM
- TGI [3]: > 10 µM
- TGI [4]: > 10 µM
- TGI [5]: > 10 µM
- TGI [6]: > 10 µM
- TGI [7]: > 10 µM
- TGI [8]: > 10 µM
- TGI [9]: > 10 µM
- TGI [10]: > 10 µM
- TGI [11]: > 10 µM
- TGI [12]: > 10 µM
- TGI [13]: > 10 µM
- TGI [14]: > 10 µM
- TGI [15]: > 10 µM
- TGI [16]: > 10 µM
- TGI [17]: > 10 µM
- TGI [18]: > 10 µM
- TGI [19]: > 10 µM
- TGI [20]: > 10 µM
- TGI [21]: > 10 µM
- TGI [22]: > 10 µM
- TGI [23]: > 10 µM
- TGI [24]: > 10 µM
- TGI [25]: > 10 µM
- TGI [26]: > 10 µM
- TGI [27]: > 10 µM
- TGI [28]: > 10 µM
- TGI [29]: > 10 µM
- TGI [30]: > 10 µM
- TGI [31]: > 10 µM
- TGI [32]: > 10 µM
- TGI [33]: > 10 µM
- TGI [34]: > 10 µM
- TGI [35]: > 10 µM
- TGI [36]: > 10 µM
- TGI [37]: > 10 µM
- TGI [38]: > 10 µM
- TGI [39]: > 10 µM
- TGI [40]: > 10 µM
- TGI [41]: > 10 µM
- TGI [42]: > 10 µM
- TGI [43]: > 10 µM
- TGI [44]: > 10 µM
- TGI [45]: > 10 µM
- TGI [46]: > 10 µM
- TGI [48]: > 10 µM
- TGI [49]: > 10 µM
- TGI [50]: > 10 µM
- TGI [51]: > 10 µM
- TGI [52]: > 10 µM
- TGI [53]: > 10 µM
- TGI [54]: > 10 µM
- TGI [55]: > 10 µM
- TGI [56]: > 10 µM
- TGI [57]: > 10 µM
- TGI [58]: > 10 µM
- TGI [59]: > 10 µM
